Calls of active or inactive are those of the source. The rule behind the calls is not given here.
What was measured:
HepG2 [1] = assay: Cytotoxicity against human HepG2 cells assessed as reduction in cell viability at 100 uM incubated for 48 hrs by MTT assay; type: toxicity, cell-based; conditions: hepg2, 48 h
HepG2 [2] = assay: Hepatoprotective activity against APAP-induced cell injury in human HepG2 cells assessed as increase in survival rate preincubated for 24 hrs followed by APAP addition and measured after 24 hrs by MTT assay; type: functional, cell-based; conditions: dose 6.25-25 µM, time 48.0 hrs
HepG2 [3] = assay: Hepatoprotective activity against APAP-induced cell injury in human HepG2 cells assessed as reduction in ALT level at 6.25 to 25 uM preincubated for 24 hrs followed by APAP addition and measured after 24 hrs; type: functional, cell-based; conditions: dose 6.25-25 µM, time 48.0 hrs
HepG2 [4] = assay: Hepatoprotective activity against APAP-induced cell injury in human HepG2 cells assessed as reduction in AST level at 6.25 to 25 uM preincubated for 24 hrs followed by APAP addition and measured after 24 hrs; type: functional, cell-based; conditions: dose 6.25-25 µM, time 48.0 hrs
HepG2 [5] = assay: Hepatoprotective activity in human HepG2 cells assessed as restoration of APAP-induced inhibition of Bcl-2 expression preincubated for 24 hrs followed by APAP addition and measured after 24 hrs by Western blot analysis; type: functional, cell-based; conditions: dose 6.25-25 µM, time 48.0 hrs
HepG2 [6] = assay: Hepatoprotective activity in human HepG2 cells assessed as inhibition of APAP-induced increase in Bax expression preincubated for 24 hrs followed by APAP addition and measured after 24 hrs by Western blot analysis; type: functional, cell-based; conditions: dose 6.25-25 µM, time 48.0 hrs
HepG2 [7] = assay: Hepatoprotective activity against APAP-induced human HepG2 cell apoptosis assessed as viable cells at 25 uM incubated for 24 hrs in presence of APAP by Annexin V-FITC/PI staining based flow cytometry (Rvb=62.69%); type: functional; conditions: read-out: Activity
HepG2 [8] = assay: Hepatoprotective activity against APAP-induced human HepG2 cell apoptosis assessed as early apoptotic cells at 25 uM incubated for 24 hrs in presence of APAP by Annexin V-FITC/PI staining based flow cytometry (reference value: 25.81%); type: functional
HepG2 [9] = assay: Hepatoprotective activity against APAP-induced human HepG2 cell apoptosis assessed as late apoptotic cells at 25 uM incubated for 24 hrs in presence of APAP by Annexin V-FITC/PI staining based flow cytometry (reference value: 11.01%); type: functional
HepG2 [10] = assay: Hepatoprotective activity against APAP-induced human HepG2 cell apoptosis assessed as necrotic cells at 25 uM incubated for 24 hrs in presence of APAP by Annexin V-FITC/PI staining based flow cytometry (reference value: 0.49%); type: functional
HepG2 [11] = assay: Hepatoprotective activity against APAP-induced cell injury in human HepG2 cells assessed as increase in GSH-Px activity at 6.25 to 25 uM preincubated for 24 hrs followed by APAP addition and measured after 24 hrs; type: functional, cell-based; conditions: dose 6.25-25 µM, time 48.0 hrs
HepG2 [12] = assay: Hepatoprotective activity against APAP-induced cell injury in human HepG2 cells assessed as increase in Nrf2 expression at 6.25 to 25 uM preincubated for 24 hrs followed by APAP addition and measured after 24 hrs by Western blot analysis; type: functional, cell-based; conditions: dose 6.25-25 µM, time 48.0 hrs
HepG2 [13] = assay: Hepatoprotective activity against APAP-induced cell injury in human HepG2 cells assessed as increase in HO-1 expression at 6.25 to 25 uM preincubated for 24 hrs followed by APAP addition and measured after 24 hrs by Western blot analysis; type: functional, cell-based; conditions: dose 6.25-25 µM, time 48.0 hrs
HepG2 [14] = assay: Hepatoprotective activity against APAP-induced cell injury in human HepG2 cells assessed as increase in GPX4 expression at 6.25 to 25 uM preincubated for 24 hrs followed by APAP addition and measured after 24 hrs by Western blot analysis; type: functional, cell-based; conditions: dose 6.25-25 µM, time 48.0 hrs
HepG2 [15] = assay: Hepatoprotective activity in human HepG2 cells assessed as reduction in APAP-induced increased in ROS level at 25 uM measured after 24 hrs in presence of APAP by DCF staining based flow cytometry; type: functional, cell-based
HepG2 [16] = assay: Hepatoprotective activity against APAP-induced cell injury in human HepG2 cells assessed as reduction in ALT level at 10 uM preincubated for 24 hrs followed by APAP addition and measured after 24 hrs; type: functional, cell-based; conditions: time 48.0 hrs
HepG2 [17] = assay: Hepatoprotective activity against APAP-induced cell injury in human HepG2 cells assessed as reduction in AST level at 10 uM preincubated for 24 hrs followed by APAP addition and measured after 24 hrs; type: functional, cell-based; conditions: time 48.0 hrs

CCCCO[C@H]1OC[C@](O)(COC(=O)c2ccc(O)c(OC)c2)[C@H]1O
Activity (HepG2 [1]): Non-toxic | Activity (HepG2 [2]): Dose-dependent-effect | Activity (HepG2 [3]): Active; Significant Effect Observed | Activity (HepG2 [4]): Active; Significant Effect Observed

COc1cc(O[C@@H]2O[C@H](COC(=O)c3ccc(O)c(OC)c3)[C@@H](O[C@@H]3O[C@H](CO)[C@@H](O)[C@H](O)[C@H]3O)[C@H](O)[C@H]2O)ccc1O
Activity (HepG2 [1]): Non-toxic | Activity (HepG2 [2]): Dose-dependent-effect | Activity (HepG2 [3]): Active; Significant Effect Observed | Activity (HepG2 [4]): Active; Significant Effect Observed | Activity (HepG2 [5]): Dose-dependent-effect; Significant Effect Observed | inhibition (HepG2 [6]): Dose-dependent-effect; Significant Effect Observed | viability at 25 µM (HepG2 [7]): 69.2% | Activity (HepG2 [8]): 20.51% | Activity (HepG2 [9]): 9.43% | Activity (HepG2 [10]): 0.9% | Activity (HepG2 [11]): Active | Activity (HepG2 [12]): Active | Activity (HepG2 [13]): Active | Activity (HepG2 [14]): Active | Activity (HepG2 [15]): Active

COc1cc(C(=O)OC[C@H]2O[C@@H](Oc3cc(OC)c(OC)c(OC)c3)[C@H](O)[C@@H](O)[C@@H]2O)ccc1O
Activity (HepG2 [1]): Non-toxic | Activity (HepG2 [2]): Dose-dependent-effect | Activity (HepG2 [3]): Active; Significant Effect Observed | Activity (HepG2 [4]): Active; Significant Effect Observed

COc1cc(O[C@@H]2O[C@H](COC(=O)c3cc(OC)c(O)c(OC)c3)[C@@H](O[C@@H]3O[C@H](CO)[C@@H](O)[C@H](O)[C@H]3O)[C@H](O)[C@H]2O)ccc1O
Activity (HepG2 [1]): Non-toxic | Activity (HepG2 [2]): Dose-dependent-effect | Activity (HepG2 [3]): Active; Significant Effect Observed | Activity (HepG2 [4]): Active; Significant Effect Observed

COc1cc(CO)ccc1O[C@@H]1O[C@H](COC(=O)c2cc(OC)c(O)c(OC)c2)[C@@H](O[C@@H]2O[C@H](CO)[C@@H](O)[C@H](O)[C@H]2O)[C@H](O)[C@H]1O
Activity (HepG2 [1]): Non-toxic | Activity (HepG2 [2]): Dose-dependent-effect | Activity (HepG2 [3]): Active; Significant Effect Observed | Activity (HepG2 [4]): Active; Significant Effect Observed

COc1cc([C@@H]2Oc3cc([C@H]4Oc5cc(O)cc(O)c5C(=O)[C@@H]4O)ccc3O[C@H]2CO)ccc1O
Activity (HepG2 [16]): Active | Activity (HepG2 [17]): Active

CCCCO[C@@H]1OC[C@](O)(COC(=O)c2ccc(O)c(OC)c2)[C@H]1O
Activity (HepG2 [1]): Non-toxic | Activity (HepG2 [2]): Dose-dependent-effect | Activity (HepG2 [3]): Active; Significant Effect Observed | Activity (HepG2 [4]): Active; Significant Effect Observed

COc1cc(O[C@@H]2O[C@H](CO)[C@@H](O)[C@H](O)[C@H]2O[C@@H]2OC[C@](O)(COC(=O)c3ccc(O)c(OC)c3)[C@H]2O)ccc1O
Activity (HepG2 [1]): Non-toxic | Activity (HepG2 [2]): Dose-dependent-effect | Activity (HepG2 [3]): Active; Significant Effect Observed | Activity (HepG2 [4]): Active; Significant Effect Observed

Source: ChEMBL document CHEMBL6103623, “Phenolics and Phenolic Glycosides from Wrightia pubescens and Their Hepatoprotective Activities” (J Nat Prod, 2025)
